Patent US20260306526A1, “COMBINATION THERAPY FOR BACTERIAL INFECTIONS COMPRISING ZINC-CHELATOR, BETA-LACTAM ANTIBIOTIC AND SERINE BETA-LACTAMASE INHIBITOR” (priority 2023, published 2026)
Where “and” joins values, the source holds several entries; their conditions need not be identical. Equal entries are not always repeated.

Key:
[1] = tested on: many strains of Acinetobacter baumannii; conditions: with MEM; cited from earlier work
[2] = tested on: Pseudomonas aeruginosa ST111; experiment: MIC determination, fixed concentration of sBLI (Examples 27-30); format: cell-based; conditions: VIM-2, OXA-395, PDC-3, caMHB, 29.4 μM Zn2+
Method: Antimicrobial susceptibility testing (AST) by broth microdilution (MIC determination) was performed according to The European Committee on Antimicrobial Susceptibility Testing (EUCAST) guidelines (see Reading guide for broth microdilution Version 5.0, 2024: https://www.eucast.org).
For combinations containing meropenem as the antibiotic, Sensititre™ FINMER meropenem 64-0.03 μg/mL plates (Thermo Fischer Diagnostics custom plates; YFINMER) were used in most of the experiments. For other antibiotics (and for meropenem whenever a higher start concentration than 64 μg/mL was needed) sterile clear round bottom polystyrene (non-treated) 96-well microplates (Corning 3788) were used for making serial two-fold dilutions of the antibiotic in cation-adjusted Mueller Hinton II broth (caMHB; Thermo Scientific, T3462, containing 29.4 μM Zn^2+ or MILLIPORE, 90922-500G, containing 5.6 μM Zn^2+), across the columns of the microtiter plate (128-0.06 μg/mL; columns 1-12).
The checkerboard plates were all modified by adding a serine β-lactamase inhibitor (sBLI) at a fixed concentration of 16 μg/mL. Additionally, the zinc chelator was added at various fixed concentrations. […]

[3] = tested on: Klebsiella pneumoniae Kpn St147; experiment: MIC determination, checkerboard broth microdilution, meropenem + zinc chelator + avibactam (Example 1); format: cell-based
Method: Antimicrobial susceptibility testing (AST) by broth microdilution was performed according to The European Committee on Antimicrobial Susceptibility Testing.
Sensititre™ FINMER meropenem 64-0.03 μg/ml plates (Thermo Fischer Diagnostics custom plates; YFINMER) were modified by adding avibactam to rows 3 to 8 in concentrations of 64, 16, 8, 4, 1 and 0.25 μg/ml, respectively. The zinc chelator was added to the wells of the plate, where applicable. Three plates were made per experiment, one without the zinc chelator (plate 1), one with 16 μg/ml of the zinc chelator (plate 2) and one with 32 μg/ml of the zinc chelator (plate 3). The first row in all plates was used as a positive control for meropenem only, and the second row included the zinc chelator in addition to meropenem (no avibactam added to rows 1 or 2). The zinc chelator was added at the indicated concentration to rows 3-8 of plates 2 and 3.
The effect of the combination of zinc chelator/MEM/avibactam was tested on a clinically isolated Klebsiella pneumoniae Kpn St147 actively constitutionally expressing the two resistance mechanisms NDM-1 and KPC-2 simultaneously. As a negative control, bacteria+meropenem was tested alone. As a positive control, bacteria+MEM+zinc chelator was used. In Table 1 and 2, concentrations (μg/ml) of meropenem are given in the top row left to right and avibactam concentrations (μg/ml) are given top to bottom in column 1. […] A blank cell indicates no growth.
The fractional inhibitory concentration (FIC) is defined as the concentration that kills when used in combination with another agent divided by the concentration that has the same effect when used alone. The FIC index (FICI) for the combination of two agents is the sum of their individual FIC values. […]

## CN(C[C@H](O)[C@@H](O)[C@H](O)[C@H](O)CO)C(=O)c1ccc(CN(Cc2ccccn2)Cc2ccccn2)nc1 [zinc chelator]
[1]
  effect of combination: poor effect
[2]; Example 27, with PIP and AVI 16 μg/mL
  Synergy with the zinc chelator observed at concentration: 16 µg/mL
[2]; Example 28, with PIP and TAZ 16 μg/mL
  Synergy with the zinc chelator observed at concentration: 16 µg/mL and 8 µg/mL
[3]; zinc chelator 16 μg/mL, MEM/avibactam 0.5/0.25 (r9), 0.25/1 (r10), 0.25/4 (r11), 0.06/8 (r12) μg/mL
  FICI Zinc Chelator: 0.008
[3]; zinc chelator 32 μg/mL, MEM/avibactam 0.5/0.25 (r13), 0.12/1 (r14), 0.06/4 (r15), 0.06/8 (r16) μg/mL
  FICI Zinc Chelator: 0.016
[3]; zinc chelator at 16 μg/ml with MEM + avibactam
  amplification of the inhibitory effect: about 64 fold
